In ChEMBL document CHEMBL6114991, “Design, synthesis, and biological evaluation of novel quinoline carboxylic acid based styryl/alkyne hybrid molecule as a potent anti-adipogenic and antidyslipidemic agent via activation of Wnt/β-catenin pathway” (Eur J Med Chem, 2025):
Calls of active or inactive are those of the source. The calls are words filed in the database; no cut-off is given here.

Experiments:
[1] = Clearance in Golden Syrian hamster at 100 mg/kg, po measured upto 24 hrs by LC-MS/MS analysis; format: ADME, organism-based, Mesocricetus auratus; conditions: in vivo
3T3-L1 [2] = experiment: Inhibition of adipogenesis in mouse 3T3-L1 cells assessed as downregulation of PPARgamma expression at 10 uM measured at upto 3 days by immunoblotting analysis; format: functional, cell-based; conditions: time <= 3.0 day
3T3-L1 [3] = experiment: Induction of cell cycle arrest in mouse 3T3-L1 cells assessed as reduction in cyclin D1 level at 10 uM incubated for 16 to 24 hrs by immunoblotting analysis; format: functional, cell-based; conditions: time 16-24 hrs
3T3-L1 [4] = experiment: Induction of cell cycle arrest in mouse 3T3-L1 cells assessed as reduction in CDK4 level at 10 uM incubated for 16 to 24 hrs by immunoblotting analysis; format: functional, cell-based; conditions: time 16-24 hrs
3T3-L1 [5] = experiment: Inhibition of adipogenesis in mouse 3T3-L1 cells assessed as downregulation of CEBPalpha expression at 10 uM measured at upto 5 days by immunoblotting analysis; format: functional, cell-based; conditions: time <= 5.0 day
3T3-L1 [6] = experiment: Induction of cell cycle arrest in mouse 3T3-L1 cells assessed as reduction in cyclin D3 level at 10 uM incubated for 16 to 24 hrs by immunoblotting analysis; format: functional, cell-based; conditions: time 16-24 hrs
3T3-L1 [7] = experiment: Inhibition of adipogenesis in mouse 3T3-L1 cells assessed as downregulation of FABP4 expression at 10 uM measured at upto 7 days by immunoblotting analysis; format: functional, cell-based; conditions: time <= 7.0 day
3T3-L1 [8] = experiment: Anti-adipogenic activity in MDI-induced mouse 3T3-L1 cells assessed as suppression of adipogenesis at 0.3 uM by oil red O staining based analysis; format: functional, cell-based; conditions: time 72.0 hrs
3T3-L1 [9] = experiment: Cytotoxicity against mouse 3T3-L1 cells assessed as cell viability at 30 uM incubated for 48 hrs by MTT assay; format: toxicity, cell-based; conditions: 3t3-l1, 48 h
3T3-L1 [10] = experiment: Anti-adipogenic activity in mouse 3T3-L1 cells assessed as increase in GATA2 mRNA expression by measuring fold change at 10 uM incubated for 16 to 24 hrs; format: functional; conditions: time 16-24 hrs
3T3-L1 [11] = experiment: […] of Wnt/beta-catenin signalling in mouse 3T3-L1 cells assessed as increase in beta-catenin level at 10 uM by immunoblotting analysis; format: cell-based
3T3-L1 [12] = experiment: Inhibition of adipogenesis in mouse 3T3-L1 cells assessed as downregulation of FABP4 expression at 10 uM measured at upto 3 days by immunoblotting analysis; format: functional, cell-based; conditions: time <= 3.0 day
[13] = Toxicity in Golden Syrian hamster assessed as body weight gain at 100 mg/kg, po administered for 7 days; format: organism-based, Mesocricetus auratus; conditions: in vivo, 168 h, time 7 day
[14] = AUC in Golden Syrian hamster at 100 mg/kg, po measured upto 24 hrs by LC-MS/MS analysis; format: ADME, organism-based, Mesocricetus auratus; conditions: in vivo
Syrian golden hamster [15] = experiment: Anti-dyslipidemic activity in HFD-induced Golden Syrian hamster model assessed as decrease in CEBPalpha level at 100 mg/kg, po administered for 7 days by Western blot analysis; format: functional, organism-based; conditions: Mesocricetus auratus, time 7.0 day
3T3-L1 [16] = experiment: Inhibition of adipogenesis in mouse 3T3-L1 cells assessed as downregulation of FASN expression at 10 uM measured at upto 3 days by immunoblotting analysis; format: functional, cell-based; conditions: time <= 3.0 day
3T3-L1 [17] = experiment: Anti-adipogenic activity in mouse 3T3-L1 cells assessed as change in lipid content at 10 uM measured at 5 to 7 days; format: functional, cell-based; conditions: time 5-7 day
3T3-L1 [18] = experiment: Anti-adipogenic activity in mouse 3T3-L1 cells assessed as reduction in lipid accumulation at 10 uM; format: functional
3T3-L1 [19] = experiment: Inhibition of adipogenesis in mouse 3T3-L1 cells assessed as downregulation of FASN expression at 10 uM measured at upto 7 days by immunoblotting analysis; format: functional, cell-based; conditions: time <= 7.0 day
3T3-L1 [20] = experiment: Inhibition of adipogenesis in mouse 3T3-L1 cells assessed as downregulation of CEBPalpha expression at 10 uM measured at upto 7 days by immunoblotting analysis; format: functional, cell-based; conditions: time <= 7.0 day
3T3-L1 [21] = experiment: Anti-adipogenic activity in mouse 3T3-L1 cells assessed as reduction in lipid accumulation at 10 uM measured at upto 3 days; format: functional, cell-based; conditions: time <= 3.0 day
[22] = Toxicity in Golden Syrian hamster assessed as reduction in LDL level in serum at 100 mg/kg, po administered for 7 days; format: organism-based, Mesocricetus auratus; conditions: in vivo, 168 h, time 7 day
3T3-L1 [23] = experiment: Anti-adipogenic activity in mouse 3T3-L1 cells assessed as increase in GSK3beta mRNA expression at 10 uM incubated for 16 to 24 hrs; format: functional, cell-based; conditions: time 16-24 hrs
3T3-L1 [24] = experiment: Anti-adipogenic activity in mouse 3T3-L1 cells assessed as reduction in lipid accumulation at 10 uM in presence of FH535 by microscopic analysis; format: functional, cell-based
3T3-L1 [25] = experiment: Anti-adipogenic activity in mouse 3T3-L1 cells assessed as suppression of adipogenesis at 1 uM by oil red O staining based analysis; format: functional, cell-based
3T3-L1 [26] = experiment: Anti-adipogenic activity in mouse 3T3-L1 cells assessed as increase in beta-catenin mRNA expression at 10 uM incubated for 16 to 24 hrs; format: functional, cell-based; conditions: time 16-24 hrs
3T3-L1 [27] = experiment: Anti-adipogenic activity in mouse 3T3-L1 cells assessed as suppression of adipogenesis at 20 uM measured for 72 hrs by oil red O staining based analysis; format: functional
3T3-L1 [28] = experiment: Inhibition of adipogenesis in mouse 3T3-L1 cells assessed as downregulation of FABP4 expression at 10 uM measured at upto 5 days by immunoblotting analysis; format: functional, cell-based; conditions: time <= 5.0 day
[29] = Half life in Golden Syrian hamster at 100 mg/kg, po measured upto 24 hrs by LC-MS/MS analysis; format: ADME, organism-based, Mesocricetus auratus; conditions: in vivo
3T3-L1 [30] = experiment: Anti-adipogenic activity in mouse 3T3-L1 cells assessed as change in lipid content at 10 uM measured at 3 to 7 days; format: functional, cell-based; conditions: time 3-7 day
[31] = Toxicity in Golden Syrian hamster assessed as reduction in liver weight at 100 mg/kg, po administered for 7 days; format: organism-based, Mesocricetus auratus; conditions: in vivo, 168 h, time 7 day
[32] = Volume of distribution in Golden Syrian hamster at 100 mg/kg, po measured upto 24 hrs by LC-MS/MS analysis; format: ADME, organism-based, Mesocricetus auratus; conditions: in vivo
3T3-L1 [33] = experiment: Anti-adipogenic activity in mouse 3T3-L1 cells at 20 uM relative to control; format: functional; conditions: time 72 hrs
[34] = MRT in Golden Syrian hamster at 100 mg/kg, po measured upto 24 hrs by LC-MS/MS analysis; format: ADME, organism-based, Mesocricetus auratus; conditions: in vivo
[35] = Toxicity in Golden Syrian hamster assessed as reduction in TG level in serum at 100 mg/kg, po administered for 7 days; format: organism-based, Mesocricetus auratus; conditions: in vivo, 168 h, time 7 day
3T3-L1 [36] = experiment: Cytotoxicity against mouse 3T3-L1 cells assessed as cell viability at 20 uM incubated for 48 hrs by MTT assay; format: toxicity, cell-based; conditions: 3t3-l1, 48 h
[37] = Toxicity in Golden Syrian hamster assessed as reduction in adipocyte hypertrophy at 100 mg/kg, po administered for 7 days; format: organism-based, Mesocricetus auratus; conditions: in vivo, 168 h, time 7 day
[38] = Toxicity in Golden Syrian hamster assessed as reduction in TC level in serum at 100 mg/kg, po administered for 7 days; format: organism-based, Mesocricetus auratus; conditions: in vivo, 168 h, time 7 day
3T3-L1 [39] = experiment: Anti-adipogenic activity in mouse 3T3-L1 cells assessed as change in lipid content at 10 uM measured at 3 to 5 days; format: functional, cell-based; conditions: time 3-5 day
3T3-L1 [40] = experiment: Inhibition of adipogenesis in mouse 3T3-L1 cells assessed as downregulation of CEBPalpha expression at 10 uM measured at upto 3 days by immunoblotting analysis; format: functional, cell-based; conditions: time <= 3.0 day
Syrian golden hamster [41] = experiment: Anti-dyslipidemic activity in HFD-induced Golden Syrian hamster model assessed as decrease in PPARgamma level at 100 mg/kg, po administered for 7 days by Western blot analysis; format: functional, organism-based; conditions: Mesocricetus auratus, time 7.0 day

For Cc1ccc(/C=C/c2ccc(-c3cc(C(=O)O)c4cc(F)ccc4n3)cc2)cc1, the CL/F [1] was 46.8 mL/min/kg, the inhibition (3T3-L1 [2]) was “Active” and the Activity (3T3-L1 [3]) was “Active”. For the same compound, the Activity (3T3-L1 [4]) was “Active”, the inhibition (3T3-L1 [5]) was “Active” and the Activity (3T3-L1 [6]) was “Active”. The inhibition (3T3-L1 [7]) was “Active”, the Activity (3T3-L1 [8]) was “Active” and the Activity (3T3-L1 [9]) was “Toxic”. For the same compound, the “fold change (FC)” value (3T3-L1 [10]) was 10, the inhibition (3T3-L1 [11]) was “Active” and the inhibition (3T3-L1 [12]) was “Active”. For the same compound, the Activity [13] was “Non-toxic”, the AUC at 24 h [14] was 35700 ng·h/mL and the Activity (Syrian golden hamster [15]) was “Active”. For the same compound, the inhibition (3T3-L1 [16]) was “Active”, the Activity (3T3-L1 [17]) was “Active” and the inhibition at 10 µM (3T3-L1 [18]) was ~50%. For the same compound, the inhibition (3T3-L1 [19]) was “Active”, the inhibition (3T3-L1 [20]) was “Active” and the Activity (3T3-L1 [21]) was “Active”. For the same compound, the Activity [22] was “Non-toxic”, the Activity (3T3-L1 [23]) was “Active” and the Activity (3T3-L1 [24]) was “Active”. The Activity (3T3-L1 [25]) was “Active”, the Activity (3T3-L1 [26]) was “Active” and the Activity (3T3-L1 [27]) was 70%. The inhibition (3T3-L1 [28]) was “Active”, the half-life [29] was 218 min and the Activity (3T3-L1 [30]) was “Active”. For the same compound, the Activity [31] was “Non-toxic”, the Vd [32] was 14.79 L/kg and the Activity (3T3-L1 [33]) was 64%. The MRT [34] was 2.89 h, the Activity [35] was “Non-toxic” and the Activity (3T3-L1 [36]) was “Non-toxic”. The Activity [37] was “Non-toxic”, the Activity [38] was “Non-toxic” and the Activity (3T3-L1 [39]) was “Active”. The inhibition (3T3-L1 [40]) was “Active” and the Activity (Syrian golden hamster [41]) was “Active”.
